How the values were obtained:
XC_3703 [1] = target: T1, XC_3703 (Xanthomonas campestris, UniProt Q4UQD0); assay: isothermal titration calorimetry; type: binding
T1 construct: full-length, synthesized gene in pET47b, E. coli BL21(DE3), N-terminal His6 tag cut by 3C protease

PA4395 = target: T2, PA4395 (Pseudomonas aeruginosa, UniProt Q9HW11); assay: isothermal titration calorimetry; type: binding
T2 construct: recombinant, synthesized gene in pET47b, E. coli BL21(DE3), N-terminal His6 tag cut by 3C protease; locus tag is of strain PAO1 (PA14 used in mice)
T2 sequence (Q9HW11 whole entry): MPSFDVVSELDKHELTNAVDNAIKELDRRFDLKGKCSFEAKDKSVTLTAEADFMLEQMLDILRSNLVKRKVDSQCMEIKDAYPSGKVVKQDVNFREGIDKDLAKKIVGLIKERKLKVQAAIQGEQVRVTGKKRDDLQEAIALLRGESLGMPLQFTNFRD
Excerpt: isothermal titration calorimetry on PA4395 | affinity for cyclic di-GMP binding was only seen in YajQ family proteins from P. aeruginosa (PA4395)

XC_3703 [2] = target: T1, XC_3703; assay: biochemical; parameters: isothermal titration calorimetry of nucleotide binding to purified recombinant YajQ family protein
Protocol: (§1) The ability of XC_3703 to bind different nucleotides including cyclic di-GMP was further examined using isothermal titration calorimetry (ITC) with the purified protein (see Materials and Methods ). The full-length XC_3703 protein bound cyclic di-GMP with high affinity with a K d of 2 µM (Figure 1B; Table S2). It appeared that binding was endothermic in nature, which is a characteristic of a binding mechanism that favours hydrogen bonding and hydrophobic interactions, [16]. […] The observed binding affinity is within the range of physiological cyclic di-GMP levels observed in Xcc and is similar to the binding affinity of a number of established cyclic di-GMP effector proteins. […] To examine whether cyclic di-GMP binding was a common feature of this family, recombinant YajQ-like proteins from various bacteria including Escherichia coli, Pseudomonas aeruginosa, Stenotrophomonas maltophilia, Bacillus cereus and Clostridium species were purified and their ability to bind different nucleotides was assessed. […] The DNA fragments encoding the proteins of interest were synthesized by Gene Oracle in pGOv4 and sub-cloned into pET47b or pLAFR3 before transformation into E. coli BL21 (DE3). Genomic regions are described in Table S7. BL21 (DE3) cells were grown in LB media and induced with 0.25 mM IPTG; protein overexpression was carried out at 37°C for 1 h. Purification was achieved by Ni^2+ affinity chromatography using the N-terminal His6 tag followed by tag cleavage using recombinant 3C protease.

Smlt4090 = target: T3, Smlt4090 (Stenotrophomonas maltophilia, UniProt B2FHW7); assay: isothermal titration calorimetry; type: binding
T3 construct: recombinant, synthesized gene in pET47b, E. coli BL21(DE3), N-terminal His6 tag cut by 3C protease
T3 sequence (B2FHW7 whole entry): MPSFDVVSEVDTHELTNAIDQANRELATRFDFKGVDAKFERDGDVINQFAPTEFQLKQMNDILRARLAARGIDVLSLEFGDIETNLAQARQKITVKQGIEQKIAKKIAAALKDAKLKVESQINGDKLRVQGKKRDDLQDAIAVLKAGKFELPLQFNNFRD
Excerpt: isothermal titration calorimetry on Smlt4090 | YajQ family proteins from P. aeruginosa (PA4395) and S. maltophilia (Smlt4090)

[3] = target: T4, XC_3703 (YajQ family) (Xanthomonas campestris pv. campestris 8004) (UniProt Q4UQD0); assay: EMSA
T4 sequence: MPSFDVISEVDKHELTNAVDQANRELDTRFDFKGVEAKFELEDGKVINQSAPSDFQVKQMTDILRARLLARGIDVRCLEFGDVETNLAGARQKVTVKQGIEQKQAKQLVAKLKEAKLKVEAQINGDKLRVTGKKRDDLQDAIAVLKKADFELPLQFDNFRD

YajQ = target: T5, YajQ (Escherichia coli, UniProt P0A8E7); assay: biochemical; parameters: isothermal titration calorimetry of nucleotide binding to purified recombinant YajQ family protein
T5 construct: recombinant, N-terminal His6 tag cleaved with 3C protease
T5 sequence (P0A8E7 whole entry): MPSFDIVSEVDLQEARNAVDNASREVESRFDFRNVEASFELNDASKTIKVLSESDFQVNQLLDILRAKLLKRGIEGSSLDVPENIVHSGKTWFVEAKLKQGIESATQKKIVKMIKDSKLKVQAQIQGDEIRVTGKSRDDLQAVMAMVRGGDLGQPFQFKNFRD
Protocol: as §1

Clocel_3875 = target: T6, Clocel_3875 (Clostridium cellulovorans, UniProt D9SKW9); assay: biochemical; parameters: isothermal titration calorimetry of nucleotide binding to purified recombinant YajQ family protein
T6 construct: recombinant, N-terminal His6 tag cleaved with 3C protease
T6 sequence (D9SKW9 entry or part of it): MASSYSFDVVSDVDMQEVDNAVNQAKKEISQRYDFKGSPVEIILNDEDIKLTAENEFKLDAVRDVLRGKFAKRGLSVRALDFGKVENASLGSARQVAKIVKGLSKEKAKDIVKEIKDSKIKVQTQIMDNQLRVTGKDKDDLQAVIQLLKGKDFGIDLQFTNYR
Protocol: as §1

Compound	Kd (XC_3703 [1]) [µM]	Kd (XC_3703 [1]; read-out: Kd) [µM]	Kd (YajQ) [µM]	Kd (Clocel_3875) [µM]	other results
Nc1ncnc2c1ncn2[C@@H]1O[C@@H]2COP(=O)(O)O[C@H]3[C@@H](O)[C@H](n4cnc5c(N)ncnc54)O[C@@H]3COP(=O)(O)O[C@H]2[C@H]1O [cyclic di-AMP]	900	–	–	–	–
Nc1nc2c(ncn2[C@@H]2O[C@@H]3CO[P@](=O)(O)O[C@H]4[C@@H](O)[C@H](n5cnc6c(=O)[nH]c(N)nc65)O[C@@H]4CO[P@](=O)(O)O[C@H]3[C@H]2O)c(=O)[nH]1 [cyclic di-GMP]	2	–	–	–	Kd (PA4395): 6.98 µM; Kd (XC_3703 [2]): 2.2 µM; Kd (Smlt4090): 7.91 µM
GGCATCGAACCGGCCGCACGTTTCGCGGCTGTTGTGCAGTGAATACGTATGCACAGGGTCAATGCTGCGCCGCGATGCGCGCTTAGCATCACCGCGCGCCGCACGCCGTGGGGCGCGCTTTCCGGAACAGGGGCCGGAGGGCATTGCTGCATGCATCGCTGTGCGGGATGCGTGCGTCCACTGATCAGGAGACACACCCG (double strand) [aaeB promoter probe]	–	–	–	–	binding [3]: no binding
Nc1ncnc2c1ncn2[C@@H]1O[C@H](COP(=O)(O)OP(=O)(O)OP(=O)(O)O)[C@@H](O)[C@H]1O [ATP]	–	3000	28.2	21.1	–
Nc1nc2c(ncn2[C@@H]2O[C@H](COP(=O)(O)OP(=O)(O)OP(=O)(O)O)[C@@H](O)[C@H]2O)c(=O)[nH]1 [GTP]	–	13000	34.3	31	–

Source: paper PMC4199771, “Novel Cyclic di-GMP Effectors of the YajQ Protein Family Control Bacterial Virulence” (PLoS Pathogens, 2014)
